Key:
[1] = tested on: Echinochloa crus-galli (ECHCG); assay: Flooded Echinochloa crus-galli, visual herbicidal damage (Biological Example 1, Test 125); format: in vivo; conditions: 14 DAA
Protocol: (§1) Rice seeds, variety IR-64 (an indica type of rice), were sown in seed trays. After 7 days the resulting plants were transplanted as 3 groups of 2 plants, into pots containing a standard sandy loam soil saturated with water replicating swampy conditions. These were grown on for a further 9 days in a glasshouse bay (30/20° C. day/night; 18/6 hours light/dark; 75% humidity). Leptochloa chinensis (LEFCH) and Echinochloa crus-galli (ECHCG) were sown as 2 separate groups of approx 10-20 seeds into pots 13 days prior to application of the test substances, in the same glasshouse conditions as the rice. Therefore, each pot of weeds contained a group of LEFCH and a separate group of ECHCG. All pots of rice and all pots of weeds were flooded to 2-3 cm water depth the day prior to application of the test substances. Growth stages at time of application were as follows: Rice: from 2 leaves on the main stem up to tillering; ECHCG: from 2 leaves on the main stem up to tillering; LEFCH: 2-3 leaves.
(§2) Test solutions were prepared by mixing the appropriate aliquots of the test substances in deionised water to give the desired treatment concentration. Most of the test substances were used as formulated products. Specifically, compound A-4 was applied as the EC050 formulation disclosed in Formulation Example 1 herein (EC=emulsifiable concentrate). Compound A-7 was applied as the EC050 Formulation disclosed in Formulation Example 2 herein. Compound A-9 was applied as the EC050 Formulation disclosed in Formulation Example 3 herein. Pyroxasulfone (a comparator co-herbicide) was applied as the SC050 formulation disclosed in Reference Formulation Example 7 herein (SC=Suspension concentrate). Imazosulfuron (a comparator co-herbicide) was applied as a GR0.25 formulation (GR=granule).
(§3) The test substances which were pure active ingredient (e.g. propyrisulfuron & fenoxasulfone) (labelled as ‘Technical’ in the following results table), were prepared by dissolving in 10.56% Emulsogen EL™ (castor oil ethoxylate, CAS Registry number 61791-12-6), 42.22% N-methylpyrrolidone and 42.22% dipropylene glycol mono-ethyl ether to give a stock solution containing 5% of the test substance and 95% of (Emulsogen EL™, N-methylpyrrolidone and dipropylene glycol mono-ethyl ether).
(§4) Application of the test substances was made by pipetting the required amount of the test solution or the test formulation gently into the flood water of the appropriate pot.
(§5) The test plants were then grown on in the same glasshouse conditions, and watered twice daily keeping the flood water at a depth of 2-3 cm.
(§6) A visual assessment of the % herbicidal damage was made 7 & 14 days after application (DAA), and the results are presented herein as % visual herbicidal damage where 0=no damage to plants and 100=total kill.

[2] = tested on: Leptochloa chinensis (LEFCH); assay: Flooded Leptochloa chinensis, visual herbicidal damage (Biological Example 1, Test 125); format: in vivo; conditions: 14 DAA
Protocol: as §1, §2, §3, §4, §5, §6

[3] = tested on: Rice IR-64; assay: Flooded transplanted rice, visual herbicidal damage (Biological Example 1, Test 125); format: in vivo, variety IR-64 (indica); conditions: 14 DAA, co-herbicide alone 10 g/ha
Protocol: as §1
Test solutions were prepared by mixing the appropriate aliquots of the test substances in deionised water to give the desired treatment concentration. Most of the test substances were used as formulated products. Specifically, compound A-4 was applied as the EC050 formulation disclosed in Formulation Example 1 herein (EC=emulsifiable concentrate). […]

[4] = compound of formula (I) 60 g/ha, no co-herbicide, 0=no damage, 100=total kill
[5] = compound of formula (I) 90 g/ha, no co-herbicide
[6] = compound of formula (I) 120 g/ha, no co-herbicide

Compound | % damage to ECHCG [1, 4] [%] | % damage to ECHCG [1, 5] [%] | % damage to ECHCG [1, 6] [%] | % damage to LEFCH [2, 4] [%] | % damage to LEFCH [2, 5] [%] | % damage to LEFCH [2, 6] [%] | further results
CCc1ccc(-c2ccc(Cl)cc2Cl)cc1C1C(=O)C(C)(C)OC(C)(C)C1=O [compound A-7] | 35 | 55 | 65 | 0 | 5 | 5 | 
CCc1ccc(-c2ccc(Cl)cc2Cl)cc1C1=C(OC(=O)OC)C(C)(C)OC(C)(C)C1=O [compound A-9] | 15 | 40 | 70 | 80 | 80 | 90 | herbicidal activity against LEFCH ([2]; compound alone (EC formulation) at 60, 90 or 120 g/ha): 80-90%
CCCc1ccc2nc(Cl)c(S(=O)(=O)NC(=O)Nc3nc(OC)cc(OC)n3)n2n1 [propyrisulfuron, reference compound] |  |  |  |  |  |  | % damage to ECHCG ([1]; co-herbicide alone 80 g/ha): 80%; % damage to LEFCH ([2]; co-herbicide alone 80 g/ha): 0%
CCOc1cc(Cl)c(CS(=O)(=O)C2=NOC(C)(C)C2)cc1Cl [fenoxasulfone, reference compound] |  |  |  |  |  |  | % damage to ECHCG ([1]; co-herbicide alone 200 g/ha): 65%; % damage to LEFCH ([2]; co-herbicide alone 200 g/ha): 70%
CCc1ccc(-c2ccc(Cl)cc2F)cc1C1C(=O)C(C)(C)OC(C)(C)C1=O [compound A-4] | 55 | 85 | 90 | 0 | 0 | 20 | 
Cn1nc(C(F)(F)F)c(CS(=O)(=O)C2=NOC(C)(C)C2)c1OC(F)F [pyroxasulfone, reference compound] |  |  |  |  |  |  | % damage to ECHCG ([1]; co-herbicide alone 10 g/ha): 60%; % damage to Rice IR-64 [3]: 45%; % damage to LEFCH ([2]; co-herbicide alone 10 g/ha): 70%
COc1cc(OC)nc(NC(=O)NS(=O)(=O)c2c(Cl)nc3ccccn23)n1 [imazosulfuron, reference compound] |  |  |  |  |  |  | % damage to ECHCG ([1]; co-herbicide alone 80 g/ha): 50%; % damage to LEFCH ([2]; co-herbicide alone 80 g/ha): 0%
